Reference: patent US9888679B2, “Protection of progenitor cells and regulation of their differentiation” (Proteobioactives Pty Ltd, priority 2007, dated 2018)

Legend:
[1] = test system: murine ATDC5 progenitor cells; experiment: Proteoglycan biosynthesis (35S-GAG) in monolayer cultures, maintenance or differentiation media; assay type: cell-based
From the text: (§1) FIG. 21. A bar graph of the concentration dependent effects of rhNC4 (batch PBA-1202P) expressed by K. lactis, in the absence (maintenance media, MM) and presence of insulin (10 micrograms/mL) (differentiation media, DM), on the biosynthesis of Proteoglycans (PGs) as determined by the incorporation of radioactively labelled sulfate into the sulfated glycosaminoglycans (^35S-GAG) of PGs after 3 day culture with Murine ATDC5 progenitor cells. The data was expressed as % change relative to control cultures that contained no rhNC4. P<0.05 was statistically significant relative to control cultures.
FIG. 24. A bar graph of the concentration dependent effects of combinations of rhNC4 (batch PBA-1202P) and Pentosan Polysulfate (PPS) on the biosynthesis of 35S-PGs by monolayer cultures of Murine ATDC5 progenitor cells. Data is expressed relative to control (maintenance media, MM) which was taken as 100%.
as §1, with “31.” for “21.”
FIG. 32. A bar graph of the concentration dependent effects of Pentosan Polysulfate (PPS), in the presence of insulin (10 micrograms/mL), on the biosynthesis of Proteoglycans PGs) as determined by the incorporation of radioactively labelled sulfate into the sulfated glycosaminoglycans (^35S-GAG) of PGs after 3 day culture with Murine ATDC5 progenitor cells. The data was expressed as ^35S-GAG radioactivity as counts per minute (CPM) and decays per minute (DPM) relative to control cultures that contained no PPS. P<0.05 was statistically significant relative to control cultures.
Murine Progenitor cells (cell lines C3H10T1/2 or ATDC5) purchased from RIKEN Cell Bank (Tsukuba, Japan) or human immunoselected Stro-1+ Progenitor cells (Mesoblast Ltd, Melbourne, Australia) were seeded into 50 mL plastic culture flasks containing 1:1 high glucose DMEM/Ham's F-12 medium (Invitrogen) supplemented with 10% FBS (Sigma) and incubated at 37° C., in 5% CO2. […] The experiments were generally terminated after 48 hours incubation when proteoglycan biosynthesis was determined by measuring the incorporation of ^35SO4 into the glycosaminoglycans (^35S-GAGs) as described below.
The data was expressed as % change relative to control cultures that contained no rhNC4. […]

[2] = test system: Primary human progenitor cells; experiment: Differentiation in osteogenic media: mineralisation assay; assay type: cell-based; settings: for differentiation into osteoblasts/osteocytes: osteogenic media, particularly at 1 and 10 micrograms PPS/mL, FIG. 7
Description: FIG. 7. The Effects of Pentosan Polysulfate (PPS) on Human progenitor cell Differentiation: Mineralisation Assay. Primary human progenitor cells were cultured in 96 wells plates in non-osteoinductive growth media (media control) or in osteoinductive conditions (alphaMEM supplemented with 10% FCS, 100 microM L-ascorbate-2-phosphate, dexamethasone 10^−7 M and 3 mM inorganic phosphate) in the presence of PPS at the indicated concentrations. On day 28, the concentration of acid solubilisd calcium per well was determined using the Cresolphthalein Complexone method. (A) The concentration of acid solubilised calcium per microg of DNA/well was determined following the assessment of the total amount of DNA per well using a fluorogenic DNA stain (Hoeshst 33258). […] (B) Phase-contrast photomicrographs of mineralised cultures at ×20 magnification.
The conditions necessary for the induction of human progenitor cells to develop mineralised bone matrix in vitro have been previously described (Gronthos S, A C Zannettino, S J Hay, S Shi, S E Graves, A Kortesidis and P J Simmons. (2003). Molecular and cellular characterisation of highly purified stromal stem cells derived from human bone marrow. J Cell Sci 116:1827-1835). The osteoinductive media consists of alpha-MEM media supplemented with 2% (v/v) FCS, 1.8 mM KH2PO4, 10-7 dexamethasone sodium phosphate, 50 IU/ml penicillin, 50 μg/mL streptomycin, 1 mM Sodium Pyruvate, 100 μM L-Ascorbic acid 2-phosphate, 2 mM L-glutamine and 10 mM HEPES buffer. […]
Total mineral content per well in the above cultures was assessed by measuring the calcium levels per total DNA in each well. […] The acid-solubilzed mineral 23 was transferred to a new 96-well plate and reacted with o-cresol-phthalein-complexone (Thermal Electron Corporation, USA) to form a purple dye that was measured at 570 nm using an EL 808 Ultra Microplate Reader. […] Absolute absorbance was determined by measuring against a series of DNA standards at 350 nm by LS55 Luminescence Spectrometer (Perkin Elmer).

For pentosan polysulfate [PPS], the PG synthesis ([1]; PPS in the presence of insulin (10 micrograms/mL), 3 day culture, FIG. 32) was “concentration dependent stimulation of PG synthesis”, the “biosynthesis of 35S-PGs” value ([1]; PPS, monolayer, FIG. 24) was “effect of PPS increases with concentration” and the differentiation into osteoblasts/osteocytes [2] was “suppressed differentiation into osteocytes”. For the same substance, the differentiation into osteoblasts/osteocytes ([2]; listed as polysulfated polysaccharides) was “suppress differentiation of progenitor cells to this cell phenotype” and the “calcified deposits in cultures (photomicrographs)” value ([2]; osteoinductive conditions, FIG. 7B) was “no calcified deposits are present”.
